Values quoted from earlier work as cited in patent publication US20230285259A1, “METHOD FOR DYEING KERATINOUS MATERIAL, COMPRISING THE USE OF AN ORGANOSILICON COMPOUND, A DERIVATIVE OF ALKYLATED SILANOL, A COLORING COMPOUND AND A POST-TREATMENT AGENT” (Henkel AG & Co. KGaA, priority 2020, published 2023).

Conditions: 25° C.

SMILES: O=[N+]([O-])c1cc([N+](=O)[O-])c2ccc(S(=O)(=O)O)cc2c1O [Acid Yellow 9, 8-hydroxy-5,7-dinitro-2-naphthalenesulfonic acid]
- solubility in water: above 40 g/L

SMILES: O=S(=O)(O)c1ccc(N=Nc2c(O)ccc3ccccc23)cc1 [Acid Orange 7, 4-[(2-hydroxy-1-naphthyl)azo]benzene sulphonate]
- solubility in water: more than 7 g/L

SMILES: O=C(O)C1=NN(c2ccc(S(=O)(=O)O)cc2)C(=O)C1N=Nc1ccc(S(=O)(=O)O)cc1 (stereo not shown) [Acid Yellow 23, 4,5-dihydro-5-oxo-1-(4-sulfophenyl)-4-((4-sulfophenyl)azo)-1H-pyrazole-3-carboxylic acid]
- solubility in water (in words): highly soluble

SMILES: CCN(Cc1cccc(S(=O)(=O)O)c1)c1ccc(C(=C2C=CC(=[N+](CC)Cc3cccc(S(=O)(=O)O)c3)C=C2)c2ccccc2S(=O)(=O)[O-])cc1 [Acid Blue 9]
- solubility in water: more than 20 wt. %
